Results on two compounds are retold here after paper PMC4375495 (The Journal of Biological Chemistry, 2015).

In one assay the target is PI3Kδ-p85α (Mus musculus, UniProt O35904). Kind of assay: Reversibility (dilution) assay. Conditions: preincubation 1 h with 400 nM idelalisib or 100 nM wortmannin; 10 μM PIP2, 300 μM ATP. Type of assay: biochemical, murine. As for the experimental part:
One microliter of solution was transferred to 99 μl of reaction buffer solution containing 10 μM PIP2 and 300 μM ATP to initiate the enzyme reaction. At 5-min intervals, samples from each reaction were quenched with HTRF stop solution, and fluorescence was measured using the detection kit as described above. The reactions were measured over a time frame of 40 min. […] The data were analyzed with linear least square fits to obtain reaction rates.

Another assay addresses T1, ΔABD-p110δ (Mus musculus, UniProt O35904).
T1 construct: digested with the rTEV protease to remove the iSH2 and ABD domains; made in house
T1 sequence (O35904 106-1043 limits assumed): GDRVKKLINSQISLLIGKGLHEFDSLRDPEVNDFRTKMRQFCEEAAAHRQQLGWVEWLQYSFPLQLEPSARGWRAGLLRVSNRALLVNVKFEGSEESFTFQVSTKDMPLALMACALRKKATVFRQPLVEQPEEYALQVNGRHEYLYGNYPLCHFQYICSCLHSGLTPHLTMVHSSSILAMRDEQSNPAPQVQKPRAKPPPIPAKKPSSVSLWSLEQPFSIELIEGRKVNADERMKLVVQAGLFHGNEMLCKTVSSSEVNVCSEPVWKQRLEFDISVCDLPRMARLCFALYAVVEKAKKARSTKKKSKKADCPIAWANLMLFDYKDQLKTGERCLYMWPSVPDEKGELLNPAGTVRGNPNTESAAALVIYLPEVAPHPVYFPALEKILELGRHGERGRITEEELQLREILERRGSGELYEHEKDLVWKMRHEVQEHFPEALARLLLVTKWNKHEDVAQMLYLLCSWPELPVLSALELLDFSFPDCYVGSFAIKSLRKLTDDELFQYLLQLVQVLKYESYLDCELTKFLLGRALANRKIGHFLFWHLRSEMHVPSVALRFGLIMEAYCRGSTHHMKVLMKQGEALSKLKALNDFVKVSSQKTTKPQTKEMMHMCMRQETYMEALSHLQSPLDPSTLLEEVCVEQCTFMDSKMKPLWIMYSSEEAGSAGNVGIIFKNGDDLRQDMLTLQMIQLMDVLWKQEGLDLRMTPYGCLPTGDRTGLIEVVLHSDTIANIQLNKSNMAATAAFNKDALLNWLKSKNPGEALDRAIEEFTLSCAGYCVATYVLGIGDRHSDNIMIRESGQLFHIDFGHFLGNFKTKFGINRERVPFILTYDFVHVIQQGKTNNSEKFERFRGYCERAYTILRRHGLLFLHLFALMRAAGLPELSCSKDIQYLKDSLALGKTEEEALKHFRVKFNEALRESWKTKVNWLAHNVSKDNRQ
Description: Surface plasmon resonance binding assay (Biacore). Further details: species or system murine. The following applies: for dissociation from the protein during the dissociation phase: idelalisib 0.12-30 nM, wortmannin 2 μM, 1-hour dissociation phase. As for the experimental part: ΔABD-p110δ was minimally biotinylated using a 1:1 molar ratio of protein to EZ-link sulfo-NHS-LC-LC-biotin (ThermoScientific; catalog no. 21338). […] Following incubation for 1 h at 4 °C, the mixture was desalted using a Zeba spin desalting column (ThermoScientific; catalog no. 89883) pre-equilibrated in Biacore running buffer (25 mM HEPES, pH 7.5, 150 mM NaCl, 5 mM MgCl2, 1 mM TCEP, 5% glycerol, 0.05% P20) to remove any unreacted biotin. […] Characterization of inhibitor binding and dissociation was performed using a Biacore T100 instrument and research grade series S CM5 sensor chips (GE Healthcare; catalog no. BR-1005-30). Before use, CM5 sensor chips were preconditioned using two 6-s pulses each of 100 mM HCl, 50 mM NaOH, 0.5% (w/v) SDS, and deionized H2O at a flow rate of 100 μl/min. Approximately 15,000 response units (RU) of neutravidin was immobilized on all four surfaces via standard amine-coupling chemistry (GE Healthcare; catalog no. BR-1000-50) in HBS-P buffer (10 mM HEPES, pH 7.4, 150 mM NaCl, 0.005% P20). Biotinylated protein was injected over separate flow cells to achieve capture levels ranging between 6,000 and 14,000 response units. Any remaining free sites on neutravidin were blocked with two 5-min pulses of 50 μM EZ-Link-Amine-PEG2-Biotin (ThermoScientific; catalog no. 21346) at a flow rate of 30 μl/min. […] Wortmannin was injected on a separate sensor chip at a concentration of 2 μM for an 8-min association phase and a 1-hour dissociation phase. At the end of each injection cycle, the injection needle and tubing were washed with 50% DMSO using the “extra wash” command. A five-point DMSO concentration series (ranging from 0.8% to 1.2% DMSO) was included to generate a calibration curve to correct for excluded volume effects. Sensorgrams were double-referenced and corrected for solvent effects using Scrubber 2.0c software (Biologic Software, Campbell, Australia) but fitted using both Scrubber and CLAMP software ([23]).
The data were fitted using a mass transport model ([24], [25]). Three independent surfaces were globally fit for the association and dissociation rates ka and […], while floating the maximum binding response (Rmax) and mass transport (kt) constant for each surface. […] For wortmannin, only an off-rate analysis was performed.

Assay [1] relates to broad panel of 351 kinases and 44 mutant kinases. Description: KINOMEscan kinase panel. The following applies: 10 μM idelalisib. Type of assay: binding.
Description: The enzymatic activity of the class I PI3K isoforms was measured using a time-resolved FRET assay that monitors formation of the product PIP3, because it competes with fluorescently labeled PIP3 for binding to the GRP-1 pleckstrin homology domain protein. An increase in PIP3 product results in a decrease in time-resolved FRET signal as the labeled fluorophore is displaced from the GRP-1. […] After an assay reaction time of 30 min at 25 °C, reactions were terminated with a final concentration of 10 mM EDTA, 10 nM labeled PIP3, and 35 nM europium-labeled GRP-1 detector protein before reading time-resolved FRET on an Envision plate reader (excitation, 340 nm; emission, 615/665 nm; delay, 100 μs; and read window, 500 μs). […] All IC50 values represent geometric mean values of a minimum of four determinations. These assays generally produced results within 3-fold of the reported mean.
The target of assay [2] is recombinant PI3Kδ (p110δ-p85α) (Mus musculus, UniProt O35904). Kind of assay: Competition of idelalisib with ATP (HTRF kinetic assay). Type of assay: biochemical, murine. On the procedure: After a 1-h preincubation period, PIP2 was added to a final concentration of 10 μM, and ATP was added at concentrations from 0 to 1.5 mM to initiate the reaction. After 45 min, the reactions were quenched with a stop solution from the assay kit. A detection solution was then added to each well, and the mixture was further incubated for 2 h. Time-resolved fluorescence was measured with a Tecan Infinite M1000 plate reader, using an excitation wavelength of 330 nm and emission wavelengths of 620 and 665 nm. The ratio of emission at 665 nm to that at 620 nm was used as the measure of reaction rate. […] Values of α ≫ 1 are indicative of competitive inhibition, values of α approximately equal to 1 imply noncompetitive inhibition, and values of α ≪ 1 are characteristic of uncompetitive inhibitors ([22]).
recombinant PI3Kδ (p110δ-p85α), sequence (O35904 whole entry): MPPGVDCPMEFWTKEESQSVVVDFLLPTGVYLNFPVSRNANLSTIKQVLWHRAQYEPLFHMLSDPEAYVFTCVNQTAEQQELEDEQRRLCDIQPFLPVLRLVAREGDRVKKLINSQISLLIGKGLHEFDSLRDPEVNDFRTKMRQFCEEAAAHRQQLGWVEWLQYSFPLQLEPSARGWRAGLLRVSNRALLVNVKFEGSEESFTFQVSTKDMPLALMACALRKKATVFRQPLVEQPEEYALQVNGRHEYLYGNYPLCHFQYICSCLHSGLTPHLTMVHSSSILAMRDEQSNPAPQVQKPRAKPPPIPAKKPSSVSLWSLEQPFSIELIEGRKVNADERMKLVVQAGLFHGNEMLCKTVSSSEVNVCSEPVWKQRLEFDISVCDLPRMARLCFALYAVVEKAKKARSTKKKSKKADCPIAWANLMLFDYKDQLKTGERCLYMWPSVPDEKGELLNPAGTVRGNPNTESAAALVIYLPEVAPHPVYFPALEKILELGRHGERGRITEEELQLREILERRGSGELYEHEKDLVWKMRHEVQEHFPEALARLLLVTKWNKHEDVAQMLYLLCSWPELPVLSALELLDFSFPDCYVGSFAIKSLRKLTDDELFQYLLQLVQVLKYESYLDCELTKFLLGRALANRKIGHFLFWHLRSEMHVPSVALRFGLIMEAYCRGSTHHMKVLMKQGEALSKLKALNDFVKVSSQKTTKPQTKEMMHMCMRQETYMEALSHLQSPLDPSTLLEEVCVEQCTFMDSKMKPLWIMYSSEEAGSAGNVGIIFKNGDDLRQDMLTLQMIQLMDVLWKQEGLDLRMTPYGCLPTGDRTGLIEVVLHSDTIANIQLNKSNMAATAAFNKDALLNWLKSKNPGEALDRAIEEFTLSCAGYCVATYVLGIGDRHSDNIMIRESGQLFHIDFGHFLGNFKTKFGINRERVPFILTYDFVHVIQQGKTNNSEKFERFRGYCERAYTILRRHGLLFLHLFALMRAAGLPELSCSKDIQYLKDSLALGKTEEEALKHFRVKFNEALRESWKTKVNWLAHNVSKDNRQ
recombinant PI3Kδ (p110δ-p85α), sequence (P27986 whole entry partner): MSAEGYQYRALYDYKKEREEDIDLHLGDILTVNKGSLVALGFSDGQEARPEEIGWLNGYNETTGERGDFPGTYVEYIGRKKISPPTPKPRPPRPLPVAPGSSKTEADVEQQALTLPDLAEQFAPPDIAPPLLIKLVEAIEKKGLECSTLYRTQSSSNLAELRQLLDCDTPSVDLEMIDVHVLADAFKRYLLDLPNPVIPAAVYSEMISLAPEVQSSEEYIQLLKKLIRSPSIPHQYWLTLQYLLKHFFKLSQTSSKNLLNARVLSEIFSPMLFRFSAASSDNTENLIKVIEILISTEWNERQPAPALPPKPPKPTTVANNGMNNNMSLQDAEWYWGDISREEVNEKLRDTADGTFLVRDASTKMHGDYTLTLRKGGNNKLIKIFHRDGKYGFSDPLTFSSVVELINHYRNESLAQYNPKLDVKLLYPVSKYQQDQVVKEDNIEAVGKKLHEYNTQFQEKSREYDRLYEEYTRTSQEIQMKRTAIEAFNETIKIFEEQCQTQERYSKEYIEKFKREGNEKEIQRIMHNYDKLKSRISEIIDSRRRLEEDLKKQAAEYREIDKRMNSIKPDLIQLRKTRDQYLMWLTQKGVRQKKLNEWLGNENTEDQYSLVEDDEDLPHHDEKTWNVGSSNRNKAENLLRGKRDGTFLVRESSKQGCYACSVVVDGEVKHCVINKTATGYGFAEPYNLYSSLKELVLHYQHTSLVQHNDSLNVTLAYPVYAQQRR
In general terms: Time-resolved FRET reads energy transfer from a long-lived donor to a nearby acceptor.

Assay [3] deals with PI3Kδ (murine p110δ-p85α) (Mus musculus, UniProt O35904). Description: biochemical. An excerpt:
All IC50 values represent geometric mean values of a minimum of four determinations.

Setting [4] is: biotinylated p110δ captured on neutravidin, mass transport model, global fit.

PI3Kδ-p85α, sequence (O35904 whole entry): as the sequence (O35904 whole entry) above
PI3Kδ-p85α, sequence (P27986 whole entry partner): as the sequence (P27986 whole entry partner) above
PI3Kδ (murine p110δ-p85α), sequence (O35904 whole entry): as the sequence (O35904 whole entry) above
PI3Kδ (murine p110δ-p85α), sequence (P27986 whole entry partner): as the sequence (P27986 whole entry partner) above

By Ki is commonly meant the equilibrium dissociation constant of an inhibitor or competing ligand from its target. One may read the IC50 as the concentration that inhibits the measured activity by half. On to `CC[C@H](Nc1ncnc2[nH]cnc12)c1nc2cccc(F)c2c(=O)n1-c1ccccc1` [Idelalisib, 5-fluoro-3-phenyl-2-[(1S)-1-(9H-purin-6-ylamino)propyl]quinazolin-4(3H)-one], for which, at PI3Kδ-p85α, the “recovery of enzyme activity following 1:100 dilution of the enzyme-inhibitor complex” value is on record as “enzyme activity was quickly recovered”. On ΔABD-p110δ (setting [4]), this compound yielded an off rate kd of 0.00634 s⁻¹ and an on rate ka of 5.18e+06 M⁻¹ s⁻¹. Moreover, the “dissociation from the protein during the dissociation phase” value on ΔABD-p110δ is listed as “complete dissociation”. In addition, the “most potent percent inhibition seen for any non-PI3K kinase” value in assay [1] amounted to 47%. In assay [2] (read-out: Ki (inhibition constant)), the Ki was found to be 1.5 ± 0.1 nM. Also, the “mode of inhibition (parameter α of the global fit)” value in assay [2] (α ≫ 1) is on record as “ATP-competitive inhibition”. Further, half-maximal inhibition in assay [3] (IC50) was put at 19 nM.
On to `COC[C@H]1OC(=O)c2coc3c2[C@@]1(C)C1=C(C3=O)[C@@H]2CCC(=O)[C@@]2(C)C[C@H]1OC(C)=O` [wortmannin], for which, at PI3Kδ-p85α, the “recovery of enzyme activity following 1:100 dilution of the enzyme-inhibitor complex” value is reported as “did not show detectable recovery of activity upon dilution”. Besides, the “dissociation from the protein during the dissociation phase” value on ΔABD-p110δ is reported as “no dissociation after 1 h”.
